The record followed here is patent publication US9650395B2, “Antibacterial compounds and methods for use” (PTC Therapeutics, Inc., priority 2011, dated 2017).

The structures appear in SMILES notation. Values after ≈ are worked out from the molar mass of the structure shown. Some results are limits rather than exact numbers.

Experiment [1] has as its system super sensitive Gram-negative Escherichia coli (E. coli) BAS849. Description: Antibacterial activity, microbroth dilution MIC, E. coli BAS849. Type of experiment: cell-based. Conditions: Escherichia coli; E. coli BAS849, microbroth dilution; read-out: MIC, BAS849.
The subject of experiment [2] is control Gram-negative E. coli 25922 strain. Description: Antibacterial activity, microbroth dilution MIC, E. coli 25922. As to conditions: Escherichia coli; E. coli 25922, microbroth dilution; read-out: MIC, 25922. Type of experiment: cell-based, Escherichia coli. A general note: Broth dilution looks for growth in wells or tubes with falling amounts of substance.
Experiment [3] has as its system Gram-positive Staphylococcus aureus (S. aureus) 29213. Description: Antibacterial activity, microbroth dilution MIC, S. aureus 29213. Type of experiment: cell-based. Conditions: Staphylococcus aureus; S. aureus 29213, microbroth dilution; read-out: MIC, 29213.
The test system of experiment [4] is quinolone resistant E. coli LZ3111. The experiment can be described thus: Antibacterial activity, MIC, quinolone resistant E. coli LZ3111. It is filed as cell-based, Escherichia coli. Conditions: Escherichia coli, read-out: MIC, LZ3111. The source says:
(§1) The antibacterial activity from a microbroth dilution method may be presented as the minimum inhibitory concentration (MIC in […]). The MIC value is the lowest concentration of a drug which prevents macroscopically visible bacterial growth under test conditions.
Mutations in these regions are known to confer a high level resistance to the quinolone class of antibiotics.

In experiment [5] the test system is Acinetobacter baumannii (A. baumannii) BAA747. Description: Antibacterial activity, MIC, A. baumannii BAA747. It is filed as cell-based. Conditions: Acinetobacter baumannii; A. baumannii BAA747; read-out: MIC BAA747.
Experiment [6] has as its system Klebsiella pneumoniae (K. pneumoniae) 35657. Description: Antibacterial activity, MIC, K. pneumoniae 35657. Conditions: Klebsiella pneumoniae. Type of experiment: cell-based.
Experiment [7] deals with resistant A. baumannii MXX2240 (MDR clinical isolate). Description: Antibacterial activity, MIC, resistant A. baumannii MXX2240. Conditions: Acinetobacter baumannii, resistant A. baumannii MMX2240, MDR clinical isolate; read-out: MIC MMX2240. It is filed as cell-based, Acinetobacter baumannii.
Experiment [8] concerns resistant K. pneumoniae MXX1232 (MDR clinical isolate). The experiment can be described thus: Antibacterial activity, MIC, resistant K. pneumoniae MXX1232. Conditions: Klebsiella pneumoniae; resistant K. pneumoniae MMX1232, MDR clinical isolate; read-out: MIC MMX1232. It is filed as cell-based, Klebsiella pneumoniae.
For experiment [9], the system named is Pseudomonas aeruginosa (P. aeruginosa) 27853. Description: Antibacterial activity, MIC, P. aeruginosa 27853. It is filed as cell-based. Conditions: Pseudomonas aeruginosa, P. aeruginosa 27853; read-out: MIC 27853.
Text: as §1
Antibacterial activity of test compounds against the Gram-negative bacterium Pseudomonas aeruginosa (P. aeruginosa) 27853 is shown in Table 5.

For orientation: MIC means the lowest concentration that inhibits growth of the organism. Consider `CCc1c(-c2ccc(N3CCC(c4ccccn4)C3)cc2)[nH]c(=O)c(C(=O)O)c1O` (stereo not drawn) [Cpd 286, 5-ethyl-4-hydroxy-2-oxo-6-{4-[3-(pyridin-2-yl)pyrrolidin-1-yl]phenyl}-1,2-dihydropyridine-3-carboxylic acid], for which the MIC in experiment [1] is less than 1 µg/mL; in [2], 1 to 3.5 µg/mL (≈ 2.47 to 8.63 µM); in experiment [3], 1 to 3.5 µg/mL (≈ 2.47 to 8.63 µM); in experiment [4], 12.5 to 150 µg/mL (≈ 30.8 to 370 µM); in experiment [5] it was 3.5 to 12.5 µg/mL (≈ 8.63 to 30.8 µM); in [6], 12.5 to 150 µg/mL (≈ 30.8 to 370 µM). Also, the MIC in experiment [7], in experiment [8] and in experiment [9] was 12.5 to 150 µg/mL (≈ 30.8 to 370 µM) in each case.

With `CCc1c(-c2ccc(N3CCC(O)(CC)C3)cc2)[nH]c(=O)c(C(=O)O)c1O` (stereo not drawn) [Cpd 288, 5-ethyl-6-[4-(3-ethyl-3-hydroxypyrrolidin-1-yl)phenyl]-4-hydroxy-2-oxo-1,2-dihydropyridine-3-carboxylic acid], the MIC in experiment [1] was less than 1 µg/mL; in [2], 1 to 3.5 µg/mL (≈ 2.69 to 9.4 µM); in [3], 1 to 3.5 µg/mL (≈ 2.69 to 9.4 µM); in experiment [4], 3.5 to 12.5 µg/mL (≈ 9.4 to 33.6 µM); in [5], 1 to 3.5 µg/mL (≈ 2.69 to 9.4 µM); in experiment [6], 3.5 to 12.5 µg/mL (≈ 9.4 to 33.6 µM). For the same compound, the MIC was 1 to 3.5 µg/mL (≈ 2.69 to 9.4 µM) in [7], 12.5 to 150 µg/mL (≈ 33.6 to 403 µM) in [8] and 3.5 to 12.5 µg/mL (≈ 9.4 to 33.6 µM) in experiment [9].

As to `CCc1c(-c2cnc(N(C)C)cn2)[nH]c(=O)c(C(=O)O)c1O` [Cpd 312, 6-(5-(dimethylamino)pyrazin-2-yl)-5-ethyl-4-hydroxy-2-oxo-1,2-dihydropyridine-3-carboxylic acid], the MIC in experiment [1] is less than 1 µg/mL; in experiment [2], 12.5 to 150 µg/mL (≈ 41.1 to 493 µM); in experiment [3], 12.5 to 150 µg/mL (≈ 41.1 to 493 µM); in [4] it was 12.5 to 150 µg/mL (≈ 41.1 to 493 µM); in [5], 3.5 to 12.5 µg/mL (≈ 11.5 to 41.1 µM); in experiment [6] it was 3.5 to 12.5 µg/mL (≈ 11.5 to 41.1 µM). Further, the MIC in [7], in experiment [8] and in experiment [9] was 12.5 to 150 µg/mL (≈ 41.1 to 493 µM) in each case.

For the compound `CCc1c(-c2cnc(N3CCCC3)cn2)[nH]c(=O)c(C(=O)O)c1O` [Cpd 313, 5-ethyl-4-hydroxy-2-oxo-6-(5-(pyrrolidin-1-yl)pyrazin-2-yl)-1,2-dihydropyridine-3-carboxylic acid], the MIC is less than 1 µg/mL in experiment [1]; 12.5 to 150 µg/mL (≈ 37.8 to 454 µM) in [2]; 12.5 to 150 µg/mL (≈ 37.8 to 454 µM) in [3]; 12.5 to 150 µg/mL (≈ 37.8 to 454 µM) in experiment [4]; 3.5 to 12.5 µg/mL (≈ 10.6 to 37.8 µM) in [5]; 3.5 to 12.5 µg/mL (≈ 10.6 to 37.8 µM) in [6]. In addition, the MIC in [7], in experiment [8] and in experiment [9] was 12.5 to 150 µg/mL (≈ 37.8 to 454 µM) throughout.

`CCc1c(-c2cnc(N3CCC(N(C)C)C3)cn2)[nH]c(=O)c(C(=O)O)c1O` (stereo not drawn) [Cpd 314, 6-(5-(3-(dimethylamino)pyrrolidin-1-yl)pyrazin-2-yl)-5-ethyl-4-hydroxy-2-oxo-1,2-dihydropyridine-3-carboxylic acid]: the MIC in experiment [1] was in the range of 3.5 to 12.5 µg/mL (≈ 9.37 to 33.5 µM); in [2], 12.5 to 150 µg/mL (≈ 33.5 to 402 µM); in experiment [3] it was 12.5 to 150 µg/mL (≈ 33.5 to 402 µM); in experiment [4] it was 3.5 to 12.5 µg/mL (≈ 9.37 to 33.5 µM); in [5] it was 12.5 to 150 µg/mL (≈ 33.5 to 402 µM); in experiment [6], 12.5 to 150 µg/mL (≈ 33.5 to 402 µM). The minimum inhibitory concentration (MIC) in experiment [7], in experiment [8] and in [9] was 12.5 to 150 µg/mL (≈ 33.5 to 402 µM) in each case.

As for `Cc1c(-c2ccc(N3CCCC3)cn2)[nH]c(=O)c(C(=O)O)c1O` [Cpd 315, 4-hydroxy-5-methyl-2-oxo-6-(5-(pyrrolidin-1-yl)pyridin-2-yl)-1,2-dihydropyridine-3-carboxylic acid], the MIC was in the range of 1 to 3.5 µg/mL (≈ 3.17 to 11.1 µM) in experiment [1]; 12.5 to 150 µg/mL (≈ 39.6 to 476 µM) in experiment [2]; 12.5 to 150 µg/mL (≈ 39.6 to 476 µM) in experiment [3]; 12.5 to 150 µg/mL (≈ 39.6 to 476 µM) in experiment [4]; 12.5 to 150 µg/mL (≈ 39.6 to 476 µM) in experiment [5]; 12.5 to 150 µg/mL (≈ 39.6 to 476 µM) in [6]. The MIC in experiment [7], in experiment [8] and in experiment [9] was 12.5 to 150 µg/mL (≈ 39.6 to 476 µM) throughout.

`Cc1c(-c2ccc(N3CCC(N(C)C)C3)cn2)[nH]c(=O)c(C(=O)O)c1O` (stereo not drawn) [Cpd 316, 6-(5-(3-(dimethylamino)pyrrolidin-1-yl)pyridin-2-yl)-4-hydroxy-5-methyl-2-oxo-1,2-dihydropyridine-3-carboxylic acid]: the MIC in experiment [1], in experiment [2], in [3], in [4], in experiment [5] and in experiment [6] was 12.5 to 150 µg/mL (≈ 34.9 to 419 µM) each time. The MIC in experiment [7], in experiment [8] and in [9] was 12.5 to 150 µg/mL (≈ 34.9 to 419 µM) in each case.
